From ChEMBL document CHEMBL1159068, “Discovery and SAR of small molecule PAR1 antagonists” (Bioorg Med Chem Lett, 2010)

Key:
[1] = molecular target: T1, Proteinase-activated receptor 1 (Homo sapiens) (UniProt P25116); assay: Antagonist activity at PAR1 expressed in CHO cells assessed as inhibition of SFLLR-induced intracellular calcium release at 10 uM; type: functional, cell-based
T1 sequence (whole entry): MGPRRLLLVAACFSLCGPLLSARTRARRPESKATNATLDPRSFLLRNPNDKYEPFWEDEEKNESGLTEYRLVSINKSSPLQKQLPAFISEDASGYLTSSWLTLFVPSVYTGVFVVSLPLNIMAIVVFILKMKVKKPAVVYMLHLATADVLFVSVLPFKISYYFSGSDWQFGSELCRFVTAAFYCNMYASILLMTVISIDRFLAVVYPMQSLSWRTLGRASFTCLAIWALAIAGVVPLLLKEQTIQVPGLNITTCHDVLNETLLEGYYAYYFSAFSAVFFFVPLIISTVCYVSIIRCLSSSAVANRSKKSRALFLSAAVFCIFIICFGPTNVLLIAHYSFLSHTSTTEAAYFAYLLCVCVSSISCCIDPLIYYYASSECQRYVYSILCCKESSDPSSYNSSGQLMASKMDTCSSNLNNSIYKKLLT

Platelet = assay: Inhibition of SFLLR-induced aggregation in human platelets; type: functional
Rattus norvegicus = assay: Antithrombotic activity in rat arterio-venous shunt model of thrombosis assessed as increase in occlusion time at 1.25 mg/kg, iv; type: functional
[2] = Metabolic stability in human liver microsomes assessed as parent compound remaining after 60 mins; type: ADME, Microsome; settings: read-out: Stability
[3] = Metabolic stability in rat liver microsomes assessed as parent compound remaining after 60 mins; type: ADME, Microsome; settings: read-out: Stability
[4] = molecular target: T1, Proteinase-activated receptor 1 (Homo sapiens); assay: Antagonist activity at PAR1 expressed in CHO cells assessed as inhibition of SFLLR-induced intracellular calcium release; type: functional, cell-based

| Structure (SMILES) | inhibition [1] [%] | pKb (Platelet) | Activity (Rattus norvegicus) [%] | remaining at 1 h [2] [%] | remaining at 1 h [3] [%] | pKb [4] |
| --- | --- | --- | --- | --- | --- | --- |
| CCOC(c1ccc(Cl)cc1)C(SC1CCCCC1)n1ccnc1 (stereo not drawn) | 3 | – | – | – | – | – |
| COC(c1ccc(Cl)cc1)C(SC(C)(C)C)n1cnc(C)c1 (stereo not drawn) | 96 | 4.42 | – | – | – | – |
| CCCOC(c1ccc(Cl)cc1Cl)C(SC(C)(C)C)n1cnc(C)c1 (stereo not drawn) | 88 | 5.95 | 7 | 28 | 2 | – |
| CCOC(c1ccc2sccc2c1)C(SC(C)(C)C)n1ccnc1 (stereo not drawn) | 98 | 5.2 | – | – | – | – |
| CCOC(c1ccc(C(F)(F)F)cc1)C(SC(C)(C)C)n1ccnc1 (stereo not drawn) | 100 | 5.38 | – | – | – | – |
| CCOC(c1ccc(Cl)cc1Cl)C(SC(C)(C)C)n1cnc(C)c1 (stereo not drawn) | 93 | 5.84 | – | – | – | – |
| CCCCOC(c1ccc(Cl)cc1)C(SC(C)(C)C)n1ccnc1 (stereo not drawn) | 33 | – | – | – | – | – |
| CCCOC(c1ccc(Cl)c(Cl)c1)C(OC(C)(C)C)n1ccnc1 (stereo not drawn) | 93 | 5.04 | – | – | – | – |
| CCCCSC(C(OCC)c1ccc(Cl)cc1)n1ccnc1 (stereo not drawn) | 76 | 4.58 | – | – | – | – |
| CCOC(c1ccc(Cl)cc1)C(CC(C)(C)C)n1ccnc1 (stereo not drawn) | 74 | 4.12 | – | 57 | 3 | – |
| CC(C)(C)SC(C(OCc1ccccc1)c1ccc(Cl)cc1)n1ccnc1 (stereo not drawn) | 23 | – | – | – | – | – |
| CCOC(c1cccc(Cl)c1)C(SC(C)(C)C)n1cnc(C)c1 (stereo not drawn) | 100 | 4.96 | – | – | – | – |
| CCOC(c1ccc(C(=O)OC)cc1)C(SC(C)(C)C)n1ccnc1 (stereo not drawn) | 37 | – | – | – | – | – |
| CCCOC(c1ccc(Cl)cc1)C(SC(C)(C)C)n1cnc(C)c1 (stereo not drawn) | 99 | 5.71 | 45 | 28 | 0 | 5.51 |
| CCOC(c1ccc(Cl)cc1)C(SC(C)(C)C)n1cnc(C)c1 (stereo not drawn) | 92 | 5.36 | – | – | – | – |
| CCOC(c1ccc(Br)cc1)C(SC(C)(C)C)n1ccnc1 (stereo not drawn) | 100 | 5.06 | – | – | – | – |
| CCOC(c1ccc(Cl)cc1)C(SC(C)(C)C)n1ccnc1 (stereo not drawn) | 99 | 5.05 | – | – | – | – |
| CCOC(c1ccc(Cl)cc1)C(n1ccnc1)[S+]([O-])C(C)(C)C (stereo not drawn) | 15 | – | – | 59 | 39 | – |
| CCOC(c1ccc(C(F)(F)F)cc1)C(OC(C)(C)C)n1cnc(C)c1 (stereo not drawn) | 98 | 5.2 | – | – | – | – |
| COC(c1ccc(Cl)cc1)C(SC(C)(C)C)n1ccnc1 (stereo not drawn) | 95 | 5.24 | – | – | – | – |
| CCOC(c1ccc(Cl)cc1)C(SC(C)(C)C)n1cnc(C(F)(F)F)c1 (stereo not drawn) | 20 | – | – | – | – | – |
| CCOC(c1ccc(Br)cc1)C(SC(C)(C)C)n1cnc(C)c1 (stereo not drawn) | 100 | 5.73 | – | – | – | – |
| CC(C)(C)SC(C(O)c1ccc(Cl)cc1)n1ccnc1 (stereo not drawn) | 11 | – | – | – | – | – |

| Structure (SMILES) | inhibition [1] [%] | pKb (Platelet) | Activity (Rattus norvegicus) [%] | remaining at 1 h [2] [%] | remaining at 1 h [3] [%] | pKb [4] |
| --- | --- | --- | --- | --- | --- | --- |
| CCOC(c1ccc2c(c1)OCCO2)C(SC(C)(C)C)n1ccnc1 (stereo not drawn) | 88 | 4.79 | – | – | – | – |
| CCOC(c1ccc(Cl)cc1)C(SC(C)(C)C)n1cnc(C)c1C (stereo not drawn) | 64 | – | – | – | – | – |
| CCOC(c1ccc(Cl)cc1)C(SC(C)(C)C)n1cnnc1 (stereo not drawn) | 34 | – | – | – | – | – |
| CCOC(c1ccc(Cl)cc1)C(SC(C)(C)C)n1cnc(Cl)c1 (stereo not drawn) | 96 | 4.6 | – | – | – | – |
| CCOC(c1ccc(Cl)cc1)C(SC(C)C)n1ccnc1 (stereo not drawn) | 40 | – | – | – | – | – |
| CCCOC(c1ccc(Cl)c(Cl)c1)C(OC(C)(C)C)n1cnc(C)c1 (stereo not drawn) | 81 | 5.73 | 43 | 23 | 3 | – |
| CCOC(c1ccccc1Cl)C(SC(C)(C)C)n1cnc(C)c1 (stereo not drawn) | 100 | 5.21 | – | – | – | – |
| CCOC(c1ccc(Cl)cc1)C(SC(C)(C)C)n1cncc1Cl (stereo not drawn) | 59 | – | – | – | – | – |
| CCOC(c1ccc(Cl)cc1)C(SC(C)(C)C)n1cncn1 (stereo not drawn) | 99 | 4.64 | – | – | – | – |
| CCCOC(c1ccc(F)cc1)C(OC(C)(C)C)n1ccnc1 (stereo not drawn) | 18 | – | – | – | – | – |
| CCOC(c1ccccc1[N+](=O)[O-])C(SC(C)(C)C)n1ccnc1 (stereo not drawn) | 33 | – | – | – | – | – |
| CCCOC(c1ccc(Br)cc1)C(SC(C)(C)C)n1cnc(C)c1 (stereo not drawn) | 76 | 5.99 | 0 | 23 | 0 | – |
| CCCOC(c1ccc(Cl)cc1)C(SC(C)(C)C)n1ccnc1 (stereo not drawn) | 96 | 5.01 | – | – | – | – |
| CCOC(c1ccc(Cl)cc1)C(n1ccnc1)S(=O)(=O)C(C)(C)C (stereo not drawn) | 13 | – | – | 35 | 47 | – |
| CCOC(c1ccc(Cl)cc1)C(OC(C)(C)C)n1ccnc1 (stereo not drawn) | 85 | 4.54 | 0 | 74 | 25 | – |
| CCOC(c1ccc(Cl)cc1)C(SC(C)(C)C)n1ccnc1C (stereo not drawn) | 63 | – | – | – | – | – |
| CCCOC(c1ccccc1Cl)C(SC(C)(C)C)n1cnc(C)c1 (stereo not drawn) | 97 | 5.14 | – | – | – | – |
| CCOC(c1ccc(Cl)cc1)C(SC(C)(C)C)n1cccn1 (stereo not drawn) | 0 | – | – | – | – | – |
| CCOC(c1cccc(OC)c1)C(SC(C)(C)C)n1ccnc1 (stereo not drawn) | 76 | 0 | – | – | – | – |
| CCOC(c1ccccc1)C(SC(C)(C)C)n1ccnc1 (stereo not drawn) | 92 | 4.46 | – | – | – | – |
| CCOC(c1ccc(Cl)cc1Cl)C(OC(C)(C)C)n1cnc(C)c1 (stereo not drawn) | 98 | 5.32 | 0 | 57 | 3 | – |
| CCCCCSC(C(OCC)c1ccc(Cl)cc1)n1ccnc1 (stereo not drawn) | 19 | – | – | – | – | – |
